Values quoted from earlier work as cited in patent publication US20090305955A1, “Cyclopeptide with Anti-Cancer Activity Derived from Collagen Type IV” (priority 2006, published 2009).

What was measured:
[1] = tested on: various cancer cell lines; settings: Han J et al; Shahan S et al; cited from earlier work
[2] = tested on: melanoma or fibrosarcoma cells; settings: Pasco S et al, 2000a; cited from earlier work
[3] = target: T1, αVβ3 integrin-CD47 protein complex (Homo sapiens, UniProt P05106); settings: Shahan T A et al; cited from earlier work
T1 construct: αVβ3 integrin-CD47 protein complex present on the surface of melanoma cells

[4] = tested on: murine melanoma B16F1 cells; settings: cells pre-incubated with peptide, injected into C57BL6 syngenic mice; Floquet et al; cited from earlier work
[5] = tested on: angiogenesis; settings: Pasco S et al, 2005; cited from earlier work

T1 sequence (P05106 27-788): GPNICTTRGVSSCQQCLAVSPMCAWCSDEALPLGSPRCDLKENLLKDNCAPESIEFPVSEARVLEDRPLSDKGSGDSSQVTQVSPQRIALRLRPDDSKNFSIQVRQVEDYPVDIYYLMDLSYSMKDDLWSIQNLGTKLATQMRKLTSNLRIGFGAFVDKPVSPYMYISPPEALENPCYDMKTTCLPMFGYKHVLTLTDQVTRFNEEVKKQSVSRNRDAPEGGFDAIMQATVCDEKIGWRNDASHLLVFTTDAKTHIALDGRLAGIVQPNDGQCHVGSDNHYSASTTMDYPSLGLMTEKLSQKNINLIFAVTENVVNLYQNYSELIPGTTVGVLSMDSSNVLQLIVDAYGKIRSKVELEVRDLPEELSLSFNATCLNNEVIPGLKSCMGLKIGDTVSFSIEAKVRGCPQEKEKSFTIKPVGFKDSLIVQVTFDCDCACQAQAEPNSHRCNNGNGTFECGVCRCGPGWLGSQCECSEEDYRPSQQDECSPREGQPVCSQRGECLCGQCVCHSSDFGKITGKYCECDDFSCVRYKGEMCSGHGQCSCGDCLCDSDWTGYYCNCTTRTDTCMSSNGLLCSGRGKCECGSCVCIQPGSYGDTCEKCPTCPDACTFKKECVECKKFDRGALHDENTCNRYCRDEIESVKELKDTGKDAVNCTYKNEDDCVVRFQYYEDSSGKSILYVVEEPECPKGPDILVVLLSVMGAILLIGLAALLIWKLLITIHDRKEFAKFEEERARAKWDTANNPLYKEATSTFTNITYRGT
T1 sequence (P06756 31-889 partner limits assumed): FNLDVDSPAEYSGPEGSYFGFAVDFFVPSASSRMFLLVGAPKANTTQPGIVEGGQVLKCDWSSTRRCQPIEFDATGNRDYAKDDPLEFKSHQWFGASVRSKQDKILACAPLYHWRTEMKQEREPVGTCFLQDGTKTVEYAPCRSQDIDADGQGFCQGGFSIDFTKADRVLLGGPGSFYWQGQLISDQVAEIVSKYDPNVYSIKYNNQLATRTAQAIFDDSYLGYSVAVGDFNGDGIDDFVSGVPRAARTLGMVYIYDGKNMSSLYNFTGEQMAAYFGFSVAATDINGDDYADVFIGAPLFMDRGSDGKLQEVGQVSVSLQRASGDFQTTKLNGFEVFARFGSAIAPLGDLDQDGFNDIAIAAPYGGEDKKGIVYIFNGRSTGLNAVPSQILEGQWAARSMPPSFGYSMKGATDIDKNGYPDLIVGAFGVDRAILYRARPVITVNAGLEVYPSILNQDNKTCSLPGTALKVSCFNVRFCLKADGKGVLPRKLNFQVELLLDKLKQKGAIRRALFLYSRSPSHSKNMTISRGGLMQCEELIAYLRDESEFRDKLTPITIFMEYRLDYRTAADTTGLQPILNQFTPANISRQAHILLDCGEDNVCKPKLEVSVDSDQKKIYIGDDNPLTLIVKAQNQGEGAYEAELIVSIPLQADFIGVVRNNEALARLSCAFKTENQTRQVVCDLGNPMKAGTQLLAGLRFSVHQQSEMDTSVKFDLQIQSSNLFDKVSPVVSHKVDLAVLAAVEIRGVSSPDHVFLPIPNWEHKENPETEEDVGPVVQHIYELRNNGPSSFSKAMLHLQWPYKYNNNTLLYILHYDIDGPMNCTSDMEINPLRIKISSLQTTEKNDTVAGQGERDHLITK
T1 sequence (P06756 891-1048 partner limits assumed): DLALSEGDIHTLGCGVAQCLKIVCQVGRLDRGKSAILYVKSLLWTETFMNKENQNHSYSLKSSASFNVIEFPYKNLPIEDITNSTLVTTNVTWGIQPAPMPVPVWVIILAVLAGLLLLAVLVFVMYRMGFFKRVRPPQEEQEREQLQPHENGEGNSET
T1 sequence (Q08722 19-323 partner): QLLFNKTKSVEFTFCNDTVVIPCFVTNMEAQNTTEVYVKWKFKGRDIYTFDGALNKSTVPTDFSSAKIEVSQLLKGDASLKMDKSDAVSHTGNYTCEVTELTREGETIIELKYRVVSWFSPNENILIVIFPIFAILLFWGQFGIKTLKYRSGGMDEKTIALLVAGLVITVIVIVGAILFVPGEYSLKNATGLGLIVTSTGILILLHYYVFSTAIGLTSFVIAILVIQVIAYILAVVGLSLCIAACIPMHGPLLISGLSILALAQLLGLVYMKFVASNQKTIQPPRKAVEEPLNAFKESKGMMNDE

CNYYSNSYSFWLASLNPER (Chemically synthesized NC1 alpha3 (IV) 185-203) [[NC1 α3(IV) 185-203], peptide constituted by amino acids 185 to 203 of the NC1 α3(IV) domain of type IV collagen]
proliferation of various cancer cell lines [1]: may inhibit the proliferation | migration of melanoma or fibrosarcoma cells in vitro [2]: inhibit the migration | binding to the αVβ3 integrin-CD47 protein complex on the surface of melanoma cells [3]: binds | tumoral growth of murine melanoma B16F1 cells [4]: inhibits the tumoral growth | angiogenesis in vitro and in vivo [5]: capable of inhibiting angiogenesis
